In patent US20090143279A1 (priority 2007, published 2009):
Where two headings read alike, the source gives them in different places.

Legend:
[1] = test system: cellular dehydrogenase activity
cytochrome c = type: cell-based, mouse
mtOXPHOS transcripts = type: cell-based, mouse; conditions: for mito-OXPHOS Z: Table 7, C2C12 myotubes, 48 h, composite Z-score
OXPHOS gene expression = type: cell-based, mouse; conditions: Conc 20 μM
nuOXPHOS transcripts = type: cell-based, mouse; conditions: for nucOXPHOS Z: Table 7, C2C12 myotubes, 48 h, composite Z-score
reactive oxygen species = type: cell-based, mouse
[2] = test system: mitochondrial membrane potential; type: cell-based, mouse
[3] = composite Z-score vs DMSO, Conc 20 μM
[4] = normalized composite Z-score vs mock-treated (DMSO) wells, Conc 20 μM

`COc1cc(OC)c2c(=O)c(-c3ccccc3)coc2c1` [5,7-dimethoxyisoflavone] gave an MTT [1, 3] of −1.335, a cyt c (cytochrome c; [3]) of 0.046 and a mitoOX (mtOXPHOS transcripts; [3]) of 0.773. It also gave a GE-HTS (OXPHOS gene expression; composite Z-score vs DMSO) of 0.945, a Viability (C2C12 myotubes; [3]) of −0.298 and a nucOX (nuOXPHOS transcripts; [3]) of 0.916. For the same molecule, the ROS (reactive oxygen species; [3]) was 0.573.

`C[C@H]1O[C@@H](n2cc(F)c(=O)[nH]c2=O)[C@H](O)[C@@H]1O` [5-fluoro-5′-deoxyuridine] showed an MTT [1, 3] of −2.176, a cyt c (cytochrome c; [3]) of 0.338 and a ΔΨm [2, 3] of −0.828. For the same molecule, the mitoOX (mtOXPHOS transcripts; [3]) was −0.387, the GE-HTS (OXPHOS gene expression; composite Z-score vs DMSO) was −0.336 and the nucOX (nuOXPHOS transcripts; [3]) was −0.284. For the same molecule, the ROS (reactive oxygen species; [3]) was 0.337.

`C[C@]12CCC(=O)C[C@@H]1CC[C@@H]1[C@@H]2CC[C@]2(C)C(=O)CC[C@@H]12` [5alpha-androstan-3,17-dione] showed an MTT [1] of −0.601, a cyt c (cytochrome c) of 0.048 and a ΔΨm [2] of 0.107. For the same molecule, the mitoOX (mtOXPHOS transcripts) was −0.509, the Viability (C2C12 myotubes) was −0.579 and the nucOX (nuOXPHOS transcripts) was −0.426. The ROS (reactive oxygen species) was 0.649.

`C=C1CCC=C(C)C(=O)CC2C(C)CC12` (centres unmarked) [15-norcaryophyllen-3-one] was tested, and the cyt c (cytochrome c; [4]) was 0.656, the ΔΨm [2, 4] was 0.034 and the mitoOX (mtOXPHOS transcripts; [4]) was 0.137. The GE-HTS (OXPHOS gene expression; normalized composite Z-score vs mock-treated (DMSO) wells) was −0.016, the Viability (C2C12 myotubes; [4]) was 0.557 and the nucOX (nuOXPHOS transcripts; [4]) was −0.076. The ROS (reactive oxygen species; [4]) was −0.667.

`COc1cccc2c1C(=O)c1c(O)c3c(c(O)c1C2=O)C[C@@](O)(C(=O)CO)C[C@@H]3O[C@H]1C[C@H](N)[C@H](O)[C@H](C)O1` [Doxorubicin, reference compound] was tested, and the “mito-OXPHOS Z” value (mtOXPHOS transcripts) was 2.57 and the “nucOXPHOS Z” value (nuOXPHOS transcripts) was −1.85.

In the case of `O=c1[nH]cc(F)c(=O)[nH]1` [Fluorouracil, reference compound], the “mito-OXPHOS Z” value (mtOXPHOS transcripts) is reported as 1.55 and the “nucOXPHOS Z” value (nuOXPHOS transcripts) is reported as 1.50.

For `COc1ccc2c(c1)c(CC(=O)O)c(C)n2C(=O)c1ccc(Cl)cc1` [Indomethacin, reference compound], the “mito-OXPHOS Z” value (mtOXPHOS transcripts) was 2.40 and the “nucOXPHOS Z” value (nuOXPHOS transcripts) was 1.32.

`CC1=CC(=O)c2ccccc2C1=O` [Menadione, reference compound] was tested, and the “mito-OXPHOS Z” value (mtOXPHOS transcripts) was 2.13 and the “nucOXPHOS Z” value (nuOXPHOS transcripts) was −3.40.

In the case of `Nc1cc(N2CCCCC2)nc(N)[n+]1[O-]` [Minoxidil, reference compound], the “mito-OXPHOS Z” value (mtOXPHOS transcripts) is reported as 1.37 and the “nucOXPHOS Z” value (nuOXPHOS transcripts) is reported as 2.38.

`CN(C)C(=O)Oc1cccc([N+](C)(C)C)c1` [Neostigmine, reference compound] was tested, and the “mito-OXPHOS Z” value (mtOXPHOS transcripts) was −3.45 and the “nucOXPHOS Z” value (nuOXPHOS transcripts) was −3.54.

In the case of `N=C1C=CC(=C(c2ccc(N)cc2)c2ccc(N)cc2)C=C1` [Pararosaniline, reference compound], the “mito-OXPHOS Z” value (mtOXPHOS transcripts) is reported as −5.43 and the “nucOXPHOS Z” value (nuOXPHOS transcripts) is reported as −2.25.

For `CC[C@@]1(O)C[C@H](O[C@H]2C[C@H](N(C)C)[C@H](O)[C@H](C)O2)c2c(cc3c(c2O)C(=O)c2c(O)ccc(O)c2C3=O)[C@H]1C(=O)OC` [Pyrromycin, reference compound], the “mito-OXPHOS Z” value (mtOXPHOS transcripts) was −2.67 and the “nucOXPHOS Z” value (nuOXPHOS transcripts) was −2.89.

In the case of `CCN(CC)CCCC(C)Nc1c2ccc(Cl)cc2nc2ccc(OC)cc12` (centres unmarked) [Quinacrine, reference compound], the “mito-OXPHOS Z” value (mtOXPHOS transcripts) is reported as −2.81 and the “nucOXPHOS Z” value (nuOXPHOS transcripts) is reported as −2.65.

`CC(C)[C@]12O[C@H]1[C@@H]1O[C@@]13[C@@]1(C)CCC4=C(COC4=O)[C@@H]1C[C@@H]1O[C@@]13C2=O` [Triptonide, reference compound] was tested, and the “mito-OXPHOS Z” value (mtOXPHOS transcripts) was 5.02 and the “nucOXPHOS Z” value (nuOXPHOS transcripts) was −2.18.

In the case of `CCCCCCCCCCCCCCCC[N+](C)(C)C.[Br-]` [cetrimonium bromide, reference compound], the “mito-OXPHOS Z” value (mtOXPHOS transcripts) is reported as 1.66 and the “nucOXPHOS Z” value (nuOXPHOS transcripts) is reported as −2.70.
